Source: ChEMBL document CHEMBL1201862, “PubChem BioAssay data set” (2004)
Active and inactive are the calls of the source.

Tests used:
[1] = molecular target: T1, Estrogen receptor (Homo sapiens, UniProt P03372);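 note: potency for inhibiting coactivator peptide recruitment to the receptor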
T1 sequence (P03372 whole entry): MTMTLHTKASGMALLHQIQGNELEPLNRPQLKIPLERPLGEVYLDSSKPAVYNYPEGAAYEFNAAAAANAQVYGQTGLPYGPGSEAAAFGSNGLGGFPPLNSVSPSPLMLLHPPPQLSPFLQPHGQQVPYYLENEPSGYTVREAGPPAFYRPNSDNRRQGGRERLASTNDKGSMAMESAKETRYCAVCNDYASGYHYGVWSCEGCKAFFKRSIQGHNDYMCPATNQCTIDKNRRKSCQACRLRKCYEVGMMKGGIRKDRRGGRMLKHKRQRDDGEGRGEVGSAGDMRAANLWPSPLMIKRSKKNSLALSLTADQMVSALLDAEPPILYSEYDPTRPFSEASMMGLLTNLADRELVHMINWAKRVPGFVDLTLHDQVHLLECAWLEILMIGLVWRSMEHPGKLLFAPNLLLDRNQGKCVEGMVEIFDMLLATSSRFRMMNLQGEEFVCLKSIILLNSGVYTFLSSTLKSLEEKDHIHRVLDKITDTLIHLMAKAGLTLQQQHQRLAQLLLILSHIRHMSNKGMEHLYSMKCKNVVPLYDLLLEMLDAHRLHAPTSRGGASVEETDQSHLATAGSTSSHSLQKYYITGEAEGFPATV

[2] = molecular target: T2, Estrogen receptor beta (Homo sapiens, UniProt Q92731);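 note: recombinant ER-beta bound to coactivator SRC1 peptide in presence of estradiol agonist; inhibitors block coactivator peptide binding and lower the FRET signal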
T2 sequence (Q92731 whole entry): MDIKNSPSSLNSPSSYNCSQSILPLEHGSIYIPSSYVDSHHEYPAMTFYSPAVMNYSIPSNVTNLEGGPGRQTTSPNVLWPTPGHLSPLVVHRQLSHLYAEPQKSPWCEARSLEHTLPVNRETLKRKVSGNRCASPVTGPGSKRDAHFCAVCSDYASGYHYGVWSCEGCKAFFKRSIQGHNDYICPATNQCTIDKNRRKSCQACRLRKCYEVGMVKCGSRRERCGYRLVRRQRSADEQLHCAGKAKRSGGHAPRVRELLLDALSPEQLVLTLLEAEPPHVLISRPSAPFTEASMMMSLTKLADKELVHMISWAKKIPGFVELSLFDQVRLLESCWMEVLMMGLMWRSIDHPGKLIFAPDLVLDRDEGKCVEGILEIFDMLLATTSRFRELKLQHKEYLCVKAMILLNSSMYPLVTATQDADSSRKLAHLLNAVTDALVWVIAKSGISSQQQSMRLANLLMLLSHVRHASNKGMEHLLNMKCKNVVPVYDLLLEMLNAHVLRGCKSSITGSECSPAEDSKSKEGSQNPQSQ

[3] = molecular target: T2, Estrogen receptor beta; test: blockers of SRC-3 recruitment to ERβ – biochemical, ELISA, streptavidin-HRP readout, orthogonal assay, confirmation (AID 1060)
[4] = molecular target: Induced myeloid leukemia cell differentiation protein Mcl-1 (Homo sapiens, UniProt Q07820); type: functional
Chain of Induced myeloid leukemia cell differentiation protein Mcl-1 (Q07820 whole entry): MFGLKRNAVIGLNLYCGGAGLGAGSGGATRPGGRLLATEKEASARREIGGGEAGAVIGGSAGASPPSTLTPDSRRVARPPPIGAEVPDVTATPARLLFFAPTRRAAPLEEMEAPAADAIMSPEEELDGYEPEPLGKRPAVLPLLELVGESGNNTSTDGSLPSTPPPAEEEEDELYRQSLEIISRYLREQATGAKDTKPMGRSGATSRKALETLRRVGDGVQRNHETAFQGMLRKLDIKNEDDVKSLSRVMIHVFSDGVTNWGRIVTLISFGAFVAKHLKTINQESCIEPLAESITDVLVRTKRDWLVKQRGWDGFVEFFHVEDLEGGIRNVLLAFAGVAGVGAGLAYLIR

[5] = molecular target: Eukaryotic translation initiation factor 4E (Mus musculus, UniProt P63073); test: blockers of eIF4G binding by eIF4E – biochemical, TR-FRET, dose response (AID 855); type: functional;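 note: potency for disrupting eIF4E binding to eIF4GI seen as loss of FRET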
Chain of Eukaryotic translation initiation factor 4E (P63073 whole entry): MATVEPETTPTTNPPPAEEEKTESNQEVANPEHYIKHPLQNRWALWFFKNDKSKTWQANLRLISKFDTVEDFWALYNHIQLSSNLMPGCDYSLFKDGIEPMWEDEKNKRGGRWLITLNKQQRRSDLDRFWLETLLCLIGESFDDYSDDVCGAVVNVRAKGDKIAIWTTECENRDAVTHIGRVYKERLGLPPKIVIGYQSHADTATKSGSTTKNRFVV

[6] = test system: Streptococcus sp. 'group A'; test: Streptococcus pyogenes SK(-)GAS viability under kanamycin – luminescence, BacTiterGlo, confirmation, counter-screen for streptokinase expression inhibitor project, dose response (AID 1900); type: functional, organism-based
[7] = molecular target: DNA (cytosine-5)-methyltransferase 1 (Homo sapiens, UniProt P26358); test: inhibition of DNA methylation by DNMT1 – biochemical, fluorescent molecular beacon, confirmation (AID 602386); type: functional
Chain of DNA (cytosine-5)-methyltransferase 1 (P26358 whole entry): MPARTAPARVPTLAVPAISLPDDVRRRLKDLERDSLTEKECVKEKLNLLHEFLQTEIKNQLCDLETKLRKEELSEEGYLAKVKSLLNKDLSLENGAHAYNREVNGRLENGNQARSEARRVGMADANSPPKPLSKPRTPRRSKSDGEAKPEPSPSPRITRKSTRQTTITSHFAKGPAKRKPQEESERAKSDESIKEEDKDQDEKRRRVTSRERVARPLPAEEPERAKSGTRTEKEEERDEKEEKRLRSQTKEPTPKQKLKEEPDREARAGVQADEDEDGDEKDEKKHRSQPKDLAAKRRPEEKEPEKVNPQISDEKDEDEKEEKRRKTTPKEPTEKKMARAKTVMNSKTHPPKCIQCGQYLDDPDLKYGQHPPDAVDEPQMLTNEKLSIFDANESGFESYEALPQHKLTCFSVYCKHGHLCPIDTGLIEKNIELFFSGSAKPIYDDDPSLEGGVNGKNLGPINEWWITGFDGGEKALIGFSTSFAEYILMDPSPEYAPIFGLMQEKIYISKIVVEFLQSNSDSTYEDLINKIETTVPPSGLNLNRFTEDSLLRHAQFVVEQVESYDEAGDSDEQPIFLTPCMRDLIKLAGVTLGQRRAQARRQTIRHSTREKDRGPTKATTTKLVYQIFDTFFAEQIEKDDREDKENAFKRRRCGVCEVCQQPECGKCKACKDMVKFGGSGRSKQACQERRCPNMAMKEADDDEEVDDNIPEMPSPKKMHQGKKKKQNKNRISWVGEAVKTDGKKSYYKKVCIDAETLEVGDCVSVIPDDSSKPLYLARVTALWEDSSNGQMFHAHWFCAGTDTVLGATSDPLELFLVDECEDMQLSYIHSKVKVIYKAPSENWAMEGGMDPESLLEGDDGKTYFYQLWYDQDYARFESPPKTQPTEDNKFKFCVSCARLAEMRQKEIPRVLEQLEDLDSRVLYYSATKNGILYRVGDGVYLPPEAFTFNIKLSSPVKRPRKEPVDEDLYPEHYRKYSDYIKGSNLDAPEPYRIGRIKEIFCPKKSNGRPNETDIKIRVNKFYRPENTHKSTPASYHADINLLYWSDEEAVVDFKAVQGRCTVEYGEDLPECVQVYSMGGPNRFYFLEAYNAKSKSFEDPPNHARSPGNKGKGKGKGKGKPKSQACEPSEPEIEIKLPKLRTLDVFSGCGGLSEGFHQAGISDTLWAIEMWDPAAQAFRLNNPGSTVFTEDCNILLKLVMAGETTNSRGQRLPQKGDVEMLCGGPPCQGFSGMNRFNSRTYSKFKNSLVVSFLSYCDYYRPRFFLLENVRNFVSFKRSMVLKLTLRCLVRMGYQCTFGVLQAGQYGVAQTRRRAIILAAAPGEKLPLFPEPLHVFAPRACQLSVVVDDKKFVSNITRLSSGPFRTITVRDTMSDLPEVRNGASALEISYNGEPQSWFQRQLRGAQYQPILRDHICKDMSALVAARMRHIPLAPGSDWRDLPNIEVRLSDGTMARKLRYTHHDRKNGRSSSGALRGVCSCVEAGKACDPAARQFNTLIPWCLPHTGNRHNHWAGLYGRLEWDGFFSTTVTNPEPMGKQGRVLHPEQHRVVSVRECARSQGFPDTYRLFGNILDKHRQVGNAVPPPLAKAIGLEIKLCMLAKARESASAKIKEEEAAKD

[8] = test system: Streptococcus; test: GAS UMAA2166 growth inhibition – luminescence, BacTiterGlo, counter-screen for streptokinase expression inhibitor project, dose response (AID 1915); type: functional, organism-based;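 note: potency for reduction of bacterial viability or growth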
[9] = test system: HEK293; test: cells; type: functional, cell-based; conditions: Homo sapiens
[10] = test system: HEK293; test: inhibition of NOD1-driven NF-kB reporter – cell-based, luminescence, uHTS, primary screen (AID 1578); type: functional; conditions: Homo sapiens
[11] = molecular target: Nucleotide-binding oligomerization domain-containing protein 2 (Homo sapiens, UniProt Q9HC29); test: inhibition of NOD2-driven NF-kB reporter – cell-based, luminescence, uHTS, HEK293 (AID 1566); type: functional
Chain of Nucleotide-binding oligomerization domain-containing protein 2 (Q9HC29 whole entry, the tested form may be a part): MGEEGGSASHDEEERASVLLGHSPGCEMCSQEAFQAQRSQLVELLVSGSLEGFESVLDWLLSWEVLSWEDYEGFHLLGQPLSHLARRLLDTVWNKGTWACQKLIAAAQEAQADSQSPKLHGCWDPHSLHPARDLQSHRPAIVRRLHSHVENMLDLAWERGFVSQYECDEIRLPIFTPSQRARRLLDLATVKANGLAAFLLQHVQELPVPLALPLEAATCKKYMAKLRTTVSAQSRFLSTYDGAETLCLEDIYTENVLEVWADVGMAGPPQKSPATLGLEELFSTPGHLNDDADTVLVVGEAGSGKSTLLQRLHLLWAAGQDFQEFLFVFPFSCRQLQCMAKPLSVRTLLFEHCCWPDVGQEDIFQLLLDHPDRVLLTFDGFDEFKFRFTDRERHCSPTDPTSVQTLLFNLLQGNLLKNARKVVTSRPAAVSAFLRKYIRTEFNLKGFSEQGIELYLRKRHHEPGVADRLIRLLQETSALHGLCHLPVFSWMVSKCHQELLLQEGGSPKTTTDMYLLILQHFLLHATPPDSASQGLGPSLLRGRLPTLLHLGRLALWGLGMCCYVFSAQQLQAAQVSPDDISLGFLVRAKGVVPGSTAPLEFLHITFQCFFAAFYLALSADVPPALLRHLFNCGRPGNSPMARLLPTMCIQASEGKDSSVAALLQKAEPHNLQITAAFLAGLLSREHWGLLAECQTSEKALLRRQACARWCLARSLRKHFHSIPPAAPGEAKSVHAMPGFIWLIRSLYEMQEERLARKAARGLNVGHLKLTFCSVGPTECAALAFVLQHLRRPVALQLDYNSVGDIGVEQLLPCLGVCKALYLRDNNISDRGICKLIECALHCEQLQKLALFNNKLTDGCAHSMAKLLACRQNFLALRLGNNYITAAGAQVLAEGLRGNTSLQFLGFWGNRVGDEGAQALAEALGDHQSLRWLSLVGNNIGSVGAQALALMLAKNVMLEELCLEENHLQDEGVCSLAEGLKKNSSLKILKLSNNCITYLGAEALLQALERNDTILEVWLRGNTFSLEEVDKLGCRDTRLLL

[12] = test system: HEK293; test: cells; type: functional, cell-based; conditions: Homo sapiens; remark: listed apart in the source
[13] = test system: HEK293; test: NOD2 signaling inhibitors in MDP-stimulated cells, cell-based, uHTS, luminescence (AID 2001); type: functional; conditions: Homo sapiens
[14] = test system: HEK293; test: cells; type: functional, cell-based; conditions: Homo sapiens; remark: listed apart in the source
[15] = molecular target: T3, Corticotropin-releasing factor receptor 2/Corticotropin-releasing factor-binding protein (Homo sapiens, UniProt P24387+Q13324); test: activators of CRF receptor 2 with binding protein – uHTS hits, confirmation (AID 602473); type: functional; conditions: read-out: EC50_Mean
T3 sequence (Q13324 whole entry): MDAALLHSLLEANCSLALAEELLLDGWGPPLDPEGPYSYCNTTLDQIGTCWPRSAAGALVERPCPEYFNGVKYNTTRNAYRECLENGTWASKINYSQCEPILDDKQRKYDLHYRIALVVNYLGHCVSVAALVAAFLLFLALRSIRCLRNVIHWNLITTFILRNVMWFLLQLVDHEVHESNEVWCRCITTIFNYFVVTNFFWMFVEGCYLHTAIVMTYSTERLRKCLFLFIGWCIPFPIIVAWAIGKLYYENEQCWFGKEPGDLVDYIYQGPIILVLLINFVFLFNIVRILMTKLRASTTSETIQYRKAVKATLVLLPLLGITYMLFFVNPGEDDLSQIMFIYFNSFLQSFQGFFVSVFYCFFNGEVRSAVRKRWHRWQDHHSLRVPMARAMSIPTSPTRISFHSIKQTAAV
T3 sequence (P24387 whole entry): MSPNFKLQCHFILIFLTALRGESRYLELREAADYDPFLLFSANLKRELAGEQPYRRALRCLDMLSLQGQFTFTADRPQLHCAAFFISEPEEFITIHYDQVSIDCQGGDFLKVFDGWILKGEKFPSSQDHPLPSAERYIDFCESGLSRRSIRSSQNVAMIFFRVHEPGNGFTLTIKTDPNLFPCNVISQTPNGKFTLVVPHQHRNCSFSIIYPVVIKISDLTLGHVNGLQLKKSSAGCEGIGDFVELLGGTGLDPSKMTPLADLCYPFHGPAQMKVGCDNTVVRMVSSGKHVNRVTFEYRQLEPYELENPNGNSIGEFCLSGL

[16] = molecular target: T3, Corticotropin-releasing factor receptor 2/Corticotropin-releasing factor-binding protein; test: Dose Response confirmation of uHTS hits for small molecule antagonists of the CRF-binding protein and CRF-R2 receptor complex.; type: functional; conditions: read-out: IC50_Mean
[17] = A Cell Based Secondary Assay To Explore Cytotoxicity of Compounds that Sensitize Mycobacterium Tuberculosis to Beta-Lactam Antibiotics.; type: functional
[18] = molecular target: G-protein coupled receptor 55 (Homo sapiens, UniProt Q9Y2T6); test: selective activators of receptor GPR55 – imaging, U2OS cells, beta-arrestin-GFP redistribution, primary screen (AID 1961); type: functional
Chain of G-protein coupled receptor 55 (Q9Y2T6 whole entry): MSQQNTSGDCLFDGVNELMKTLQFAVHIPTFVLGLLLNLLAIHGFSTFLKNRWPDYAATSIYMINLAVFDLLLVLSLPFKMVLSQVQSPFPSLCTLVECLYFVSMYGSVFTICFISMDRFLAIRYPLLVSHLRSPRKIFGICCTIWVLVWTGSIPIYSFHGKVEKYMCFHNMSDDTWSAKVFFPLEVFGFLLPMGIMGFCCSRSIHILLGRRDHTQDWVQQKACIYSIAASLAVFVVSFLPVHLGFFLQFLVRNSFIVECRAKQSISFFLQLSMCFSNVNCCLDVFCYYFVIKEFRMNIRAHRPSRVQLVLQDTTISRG

[19] = molecular target: Cytochrome P450 2C9 (Homo sapiens, UniProt P11712)
Chain of Cytochrome P450 2C9 (P11712 whole entry): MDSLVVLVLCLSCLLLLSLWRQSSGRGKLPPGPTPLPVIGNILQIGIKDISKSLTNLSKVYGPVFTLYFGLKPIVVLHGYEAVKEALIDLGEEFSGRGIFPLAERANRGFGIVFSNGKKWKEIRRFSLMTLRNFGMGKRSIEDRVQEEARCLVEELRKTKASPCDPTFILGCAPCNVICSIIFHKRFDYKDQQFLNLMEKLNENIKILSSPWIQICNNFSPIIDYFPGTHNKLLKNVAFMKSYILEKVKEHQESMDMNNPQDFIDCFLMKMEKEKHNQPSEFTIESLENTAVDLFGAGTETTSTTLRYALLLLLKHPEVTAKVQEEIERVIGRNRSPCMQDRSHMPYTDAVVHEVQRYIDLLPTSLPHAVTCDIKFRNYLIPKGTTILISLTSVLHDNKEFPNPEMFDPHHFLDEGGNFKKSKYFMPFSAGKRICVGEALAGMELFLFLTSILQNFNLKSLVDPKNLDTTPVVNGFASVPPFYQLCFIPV

[20] = molecular target: T4, Replicative DNA helicase DnaB (Mycobacterium tuberculosis, UniProt P9WMR3); test: DnaB intein splicing inhibitors, dose response, biochemical, cell-free fluorescence (AID 449749); type: functional
T4 sequence (P9WMR3 whole entry): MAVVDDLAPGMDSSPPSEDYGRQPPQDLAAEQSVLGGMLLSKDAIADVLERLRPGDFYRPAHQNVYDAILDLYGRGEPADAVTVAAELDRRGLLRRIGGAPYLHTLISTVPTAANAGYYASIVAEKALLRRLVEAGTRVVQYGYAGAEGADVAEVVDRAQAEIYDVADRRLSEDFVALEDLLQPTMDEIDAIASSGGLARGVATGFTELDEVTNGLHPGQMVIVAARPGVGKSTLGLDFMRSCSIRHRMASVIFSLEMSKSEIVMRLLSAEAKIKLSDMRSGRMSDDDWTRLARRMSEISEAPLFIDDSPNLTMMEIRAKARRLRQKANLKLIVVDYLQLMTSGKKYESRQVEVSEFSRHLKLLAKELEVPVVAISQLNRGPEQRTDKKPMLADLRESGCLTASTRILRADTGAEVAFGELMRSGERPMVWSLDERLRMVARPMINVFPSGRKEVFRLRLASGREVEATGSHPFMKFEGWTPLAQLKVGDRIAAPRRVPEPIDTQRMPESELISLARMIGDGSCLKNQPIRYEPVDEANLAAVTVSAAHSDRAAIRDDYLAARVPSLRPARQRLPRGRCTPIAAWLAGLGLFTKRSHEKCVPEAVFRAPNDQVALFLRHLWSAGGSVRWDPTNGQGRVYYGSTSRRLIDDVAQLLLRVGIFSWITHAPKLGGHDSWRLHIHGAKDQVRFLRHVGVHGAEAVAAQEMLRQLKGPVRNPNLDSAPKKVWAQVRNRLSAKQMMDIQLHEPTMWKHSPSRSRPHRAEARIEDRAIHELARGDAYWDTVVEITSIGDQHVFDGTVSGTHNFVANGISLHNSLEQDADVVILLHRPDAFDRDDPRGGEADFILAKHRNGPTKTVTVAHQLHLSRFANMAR

[21] = molecular target: T5, Protein RecA (Mycobacterium tuberculosis, UniProt P9WHJ3); test: Fluorescence Cell-Free Homogeneous Dose Retest to Identify Inhibitors of RecA-Intein Splicing Activity. [Related pubchem assays (depositor defined):AID2097, AID2223, AID489010, AID492950]; type: functional
T5 sequence (P9WHJ3 whole entry): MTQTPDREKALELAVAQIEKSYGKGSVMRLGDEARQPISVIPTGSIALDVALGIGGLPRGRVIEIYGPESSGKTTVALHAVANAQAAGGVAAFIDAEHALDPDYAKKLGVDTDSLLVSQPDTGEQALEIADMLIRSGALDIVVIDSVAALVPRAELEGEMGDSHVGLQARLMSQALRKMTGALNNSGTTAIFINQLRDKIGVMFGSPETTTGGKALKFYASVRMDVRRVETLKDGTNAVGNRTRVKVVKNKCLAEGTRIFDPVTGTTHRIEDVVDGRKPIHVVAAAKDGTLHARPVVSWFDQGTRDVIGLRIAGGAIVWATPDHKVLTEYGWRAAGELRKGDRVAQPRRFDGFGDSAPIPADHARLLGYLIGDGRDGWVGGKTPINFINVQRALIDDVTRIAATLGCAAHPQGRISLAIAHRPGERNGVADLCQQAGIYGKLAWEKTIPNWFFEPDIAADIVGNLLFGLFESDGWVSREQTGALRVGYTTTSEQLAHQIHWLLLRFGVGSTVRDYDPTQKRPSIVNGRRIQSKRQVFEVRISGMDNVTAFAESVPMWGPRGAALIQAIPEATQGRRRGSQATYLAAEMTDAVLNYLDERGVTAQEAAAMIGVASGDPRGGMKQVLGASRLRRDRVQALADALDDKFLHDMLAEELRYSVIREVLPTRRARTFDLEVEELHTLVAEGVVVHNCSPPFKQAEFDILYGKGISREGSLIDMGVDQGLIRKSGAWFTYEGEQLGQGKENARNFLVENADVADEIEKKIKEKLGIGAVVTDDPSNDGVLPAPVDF

[22] = molecular target: T6, Streptokinase A (Streptococcus pyogenes serotype M1, UniProt P10520); test: viability-normalized secreted streptokinase activity reduction – plasminogen activation absorbance, OD405, dose response (AID 1914); type: functional, Streptococcus pyogenes M1 GAS;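 note: secreted streptokinase activity via plasminogen activation per viability signal from cell pellet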
T6 sequence (P10520 whole entry): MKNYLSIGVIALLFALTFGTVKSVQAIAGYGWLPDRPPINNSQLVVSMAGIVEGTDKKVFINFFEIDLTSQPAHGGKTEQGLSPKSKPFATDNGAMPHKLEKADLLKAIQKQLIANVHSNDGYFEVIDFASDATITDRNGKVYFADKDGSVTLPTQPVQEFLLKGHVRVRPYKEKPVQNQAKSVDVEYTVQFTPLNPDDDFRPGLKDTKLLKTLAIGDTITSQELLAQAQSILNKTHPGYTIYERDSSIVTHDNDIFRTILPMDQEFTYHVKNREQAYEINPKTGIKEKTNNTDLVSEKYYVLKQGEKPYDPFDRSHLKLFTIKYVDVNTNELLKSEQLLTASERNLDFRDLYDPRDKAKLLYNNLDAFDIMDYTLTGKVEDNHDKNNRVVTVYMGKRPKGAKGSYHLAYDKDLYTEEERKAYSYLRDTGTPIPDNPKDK

[23] = viability loss in THP-1 monocytes – THP-1 cells, cytotoxicity control for Vif-APOBEC3G degradation inhibitor project, dose response (AID 1117359); type: functional; conditions: THP-1

C=CCn1c(SCC(=O)NC(=O)NCc2ccco2)nc2sc(CC)cc2c1=O
IC50 [1]: 10.1 µM (active)
IC50 [2]: 13.6 µM (active)
IC50 [3]: 0.0317 µM (not active)

Cc1ccc(NC(=O)CN2C(=O)S/C(=C/c3ccc(-c4cc(C(=O)O)ccc4C)o3)C2=O)cc1C
IC50 [4]: 2.05 µM (active)
IC50 [1]: 18.2 µM (active)
IC50 [5]: 14.4 µM (active)
EC50 [6]: 2.31 µM (active)
IC50 [7]: 11.3 µM (active)
EC50 [8]: 6.89 µM (active)

O=C(Nc1cccc(Br)c1)c1ccc(Cl)c(S(=O)(=O)N2CCOCC2)c1
IC50 [9]: > 20 µM (inactive)
EC50 [10]: 10.3 µM (active)
EC50 [11]: > 20 µM (inactive)
IC50 [12]: 6.44 µM (active)
IC50 [13]: 3.44 µM (active)
IC50 [14]: 2.87 µM (active)

Cc1cc2c(N=NC(=O)C3CC3c3ccccc3)c(O)[nH]c2cc1Br (stereo not given)
EC50 [15]: > 53 µM (inactive)
IC50 [16]: > 47.1 µM (inactive)
CC50 [17]: 32.8 µM (active)

O=C(CSc1nc2ccccc2o1)N1c2ccccc2Sc2ccc(Cl)cc21
EC50 [18]: > 32 µM (inactive)
AC50 [19]: 3.16 µM (inconclusive)

O=C(Oc1ccc(N2C(=O)CCC2=O)cc1)c1ccco1
AC50 [20]: 0.351 µM (inconclusive)
IC50 [1]: > 50 µM (not active)
EC50 [21]: 0.388 µM (active)

CCN(CC)S(=O)(=O)c1cccc(C(=O)Nc2nc3cc4c(cc3s2)OCCO4)c1
EC50 [22]: > 150 µM (not active)
IC50 [9]: > 20 µM (inactive)
EC50 [10]: 3.29 µM (active)
EC50 [11]: 4.53 µM (active)
IC50 [12]: 9.78 µM (active)
IC50 [13]: 3.47 µM (active)
EC50 [6]: 1.08 µM (active)
EC50 [8]: 7.62 µM (active)
IC50 [14]: 4.3 µM (active)

O=CN1CCN(c2ncnc3c2nnn3Cc2c(F)cccc2Cl)CC1
EC50 [18]: 12.7 µM (inactive)

COc1cccc(/C=N/NC(=O)c2cnccn2)c1O
CC50 [17]: > 40 µM (active)
CC50 [23]: > 40 µM (active)
